The results in this text go back to ChEMBL document CHEMBL4184172, “Isosteric ribavirin analogues: Synthesis and antiviral activities” (Bioorg Med Chem Lett, 2018).

Structures are written as SMILES. ≈ marks a conversion by molar mass, not a printed value. Calls of active or inactive are those of the source. The rule behind the calls is not given here.

The test system of data set [1] is Vero C1008. Kind of data set: Cytotoxicity against African green monkey Vero E6 cells assessed as alterations in cell morphology at 1000 ug/ml by microscopic analysis. The conditions noted are these: chlorocebus sabaeus. The data set is classed as cell-based.
A short description of data set [2]: Cytotoxicity against African green monkey Vero E6 cells assessed as alterations in cell morphology by microscopic analysis. The data set is classed as cell-based, Vero C1008. The conditions noted are these: chlorocebus sabaeus.
Data set [3] is described as follows: Cytotoxicity against pig SPEV cells at 150 ug/ml by microscopic analysis. The data set is classed as cell-based, Sus scrofa.
Data set [4] relates to Hepatitis C virus. Kind of data set: Antiviral activity against Hepatitis C virus infected in pig SPEV cells assessed as protection against virus-induced cytopathic effect. The data set is classed as functional, organism-based, Hepacivirus hominis. For orientation: Damage to the host cells serves as the signal in cytopathic effect assays.
Data set [5] deals with Influenza A virus. Nature of the data set: Antiviral activity against Influenza A virus H5N1 (A/duck/Novosibirsk/56/2005) infected in pig SPEV cells assessed as protection against virus-induced cytopathic effect. Type of data set: functional, organism-based. The conditions noted are these: for Activity: Influenza A virus (A/duck/Novosibirsk/56/2005(H5N1)).
In data set [6] the test system is Human alphaherpesvirus 1. Nature of the data set: Antiviral activity against Human herpesvirus 1 L2 infected in African green monkey Vero E6 cells assessed as protection against virus-induced cytopathic effect. Type of data set: functional, organism-based. The conditions noted are these: Human alphaherpesvirus 1, L2, Vero C1008.
The nature of data set [7]: Cytotoxicity against pig SPEV cells by microscopic analysis. Type of data set: cell-based, Sus scrofa.

Turning to `OC[C@H]1O[C@@H](n2cnc(-c3noc(-c4ccccc4)n3)n2)[C@H](O)[C@@H]1O`, the Activity result in data set [1] and in data set [3] was “Non-Toxic” throughout. The cytotoxic concentration (CC50) (commonly the concentration giving 50% cytotoxicity) in data set [2] stood at 380 µg/mL (≈ 1100 µM). The half-inhibitory concentration (IC50) (as a rule, the point on the concentration scale where inhibition reaches its midpoint) in data set [4] came to 8.8 µg/mL (≈ 25.5 µM).
Take `CC(C)c1nc(-c2ncn([C@@H]3O[C@H](CO)[C@@H](O)[C@H]3O)n2)no1`: the Activity entry in data set [1] and in data set [3] was “Non-Toxic” throughout. In addition, the result in data set [5] was inactive.
In the case of `Cc1nc(-c2ncn([C@@H]3O[C@H](CO)[C@@H](O)[C@H]3O)n2)no1`, the Activity entry in data set [1] and in data set [3] was “Non-Toxic” in each case. Further, the half-maximal inhibitory concentration (IC50) in data set [5] is 50 µg/mL (≈ 177 µM).
With `OC[C@H]1O[C@@H](n2cnc(-c3ncon3)n2)[C@H](O)[C@@H]1O`, the Activity entry in data set [1] and in data set [3] was “Non-Toxic” in each case. Further, the half-maximal inhibitory concentration (IC50) in data set [6] was determined as 250 µg/mL (≈ 929 µM).
Consider `NC(=O)c1ncn([C@@H]2O[C@H](CO)[C@@H](O)[C@H]2O)n1` [RIBAVIRIN], for which it took 75 µg/mL (≈ 307 µM) to reach half-maximal cytotoxicity in data set [7] (CC50). Besides, the 50% inhibitory concentration (IC50) in data set [4] and in data set [5] was 12.5 µg/mL (≈ 51.2 µM) in each case.
For `Cc1nc(-c2ncn([C@H]3C[C@H](O)[C@@H](CO)O3)n2)no1`, the Activity entry in data set [1] and in data set [3] was “Non-Toxic” in each case. Also, the result in data set [5] was inactive.
